# Experimental data taken from US11632948B2, “Recrystallization inhibitor” (THE UNIVERSITY OF WARWICK, priority 2017, dated 2023).
# No end group written: not given here.
# Test: Ice recrystallisation inhibition (IRI) SPLAT assay
# Details: 30 min at −8° C., relative to PBS control
# Procedure: A series of peptides were tested for IRI activity using a SPLAT assay. Briefly, this involved seeding a large number of small ice crystals, which were annealed for 30 minutes at −8° C., before being photographed. The average crystal size was then measured, relative to a PBS control, with smaller values indicating more IRI activity, FIGS. 3B/1C.
# Ice recrystallisation inhibition (IRI) activity was measured using a modified splat assay. A 10 μL sample of polymer dissolved in PBS buffer (pH 7.4) was dropped 1.40 m onto a chilled glass coverslip, resting on a thin aluminium block placed on dry ice. Upon hitting the coverslip, a wafer with diameter of approximately 10 mm and thickness 10 μm was formed instantaneously. The glass coverslip was transferred onto the Linkam cryostage and held at −8° C. under N2 for 30 minutes. Photographs were obtained using an Olympus CX 41 microscope with a UIS-2 20 ×/0.45/∞/0-2/FN22 lens and crossed polarizers (Olympus Ltd, Southend-on-Sea, UK), equipped with a Canon DSLR 500D digital camera. Images were taken of the initial wafer (to ensure that a polycrystalline sample had been obtained) and again after 30 minutes. Image processing was conducting using Image J, which is freely available. In brief, five of the largest ice crystals in the field of view were measured and the single largest length in any axis recorded. The average (mean) of these five measurements was then calculated to find the largest grain dimension along any axis. This was repeated for three individual wafers, and the average (mean) of these three values was calculated to give the mean largest grain size (MLGS). The average value was compared to that of a PBS buffer negative control.
row,Compound,IRI activity
1,"O=C(O)[C@@H]1CCCN1 [proline, L-proline]",no IRI activity
2,"PGlu10: poly(glutamic acid) 10-mer (SEQ ID NO: 18), computationally modelled",no IRI activity
3,poly(glutamic acid) [PGlu110],no IRI
4,poly(lysine) (KKKKKKKKKKKKKKKKKKKKKKKKKKKKKKKKKKKKKKKKKKKKKKKKKK; Poly(lysine) with 50 Lys residues) [PLys50],no IRI
5,poly(proline),significant IRI activity
6,"poly-L-proline mol wt 1,000-10,000 [PPro10-100]",potent inhibition

# Same assay, conditions: comparison
row,Compound,IRI activity compared to another polymer
1,poly(proline),more active than poly(hydroxyproline)

# Test: not given
# Details: from cited references; cited from earlier work
row,Compound,IRI activity (literature)
1,"Nisin A (ITSISLCTPGCKTGALMGCNMKTATCHCSIHVSK; also: lantibiotic, lanthionine rings and dehydro residues not placed; UniProt P13068 24-57, looked up) [a short antimicrobial peptide]",pH dependent IRI activity
2,poly(hydroxyproline),potent IRI activity
